In brackets after ≈: the same amount, converted by molar mass.
Experiments:
Rhodococcus = test: Antibacterial activity against Rhodococcus Sp. assessed as growth inhibition by agar plate method; assay type: functional
[1] = test system: Mycolicibacterium smegmatis; test: Antibacterial activity against Mycobacterium smegmatis assessed as growth inhibition by agar plate method; assay type: functional
Pseudomonas aeruginosa = test: Antibacterial activity against Pseudomonas aeruginosa assessed as growth inhibition by agar plate method; assay type: functional
Proteus mirabilis = test: Antibacterial activity against Proteus mirabilis assessed as growth inhibition by agar plate method; assay type: functional
[2] = Hemolytic activity in human RBC up to 200 ug/mL after 1 hr by spectrophotometric analysis relative to control; assay type: ADME, cell-based, Erythrocyte; conditions: human red blood cells, read-out: Activity
Escherichia coli = test: Antibacterial activity against Escherichia coli assessed as growth inhibition by agar plate method; assay type: functional
Staphylococcus aureus = test: Antibacterial activity against Staphylococcus aureus assessed as growth inhibition by agar plate method; assay type: functional
Shigella flexneri = test: Antibacterial activity against Shigella flexneri assessed as growth inhibition by agar plate method; assay type: functional
Lactococcus lactis = test: Antibacterial activity against Lactococcus lactis assessed as growth inhibition by agar plate method; assay type: functional
[3] = test system: Arthrobacter protophormiae; test: Antibacterial activity against Arthrobacter protophormiae assessed as growth inhibition by agar plate method; assay type: functional; conditions: Glutamicibacter protophormiae
Bacillus subtilis = test: Antibacterial activity against Bacillus subtilis assessed as growth inhibition by agar plate method; assay type: functional
[4] = Hemolytic activity in human RBC at 12.5 ug/mL after 1 hr by spectrophotometric analysis relative to control; assay type: ADME, cell-based, Erythrocyte; conditions: human red blood cells, read-out: Activity
[5] = Hemolytic activity in human RBC up to 400 ug/mL after 1 hr by spectrophotometric analysis relative to control; assay type: ADME, cell-based, Erythrocyte

Row | SMILES | MIC (Rhodococcus) [mg/L] | MIC [1] [mg/L] | MIC (Pseudomonas aeruginosa) [mg/L] | MIC (Proteus mirabilis) [mg/L] | hemolysis at 1 h [2] [%] | MIC (Escherichia coli) [mg/L] | MIC (Staphylococcus aureus) [mg/L] | MIC (Shigella flexneri) [mg/L] | MIC (Lactococcus lactis) [mg/L] | MIC [3] [mg/L] | MIC (Bacillus subtilis) [mg/L] | hemolysis at 1 h, 12.5 ug/mL [4] [%] | hemolysis at 1 h ([5]; human red blood cells, read-out: Activity) [%] | Activity ([5]; erythrocyte, 1 h)
1 | Oc1ccccc1C(c1c[nH]c2ccccc12)c1c[nH]c2ccccc12 | 7.5 (≈ 22.2 µM) | 6.5 (≈ 19.2 µM) | 62.5 (≈ 185 µM) | 15.5 (≈ 45.8 µM) | 20 | 15.5 (≈ 45.8 µM) | 15.5 (≈ 45.8 µM) | 15.5 (≈ 45.8 µM) | 31.2 (≈ 92.2 µM) | 15.5 (≈ 45.8 µM) | 15.5 (≈ 45.8 µM) | – | – | –
2 | c1coc(C(c2c[nH]c3ccccc23)c2c[nH]c3ccccc23)c1 | 31.2 (≈ 99.9 µM) | 15.5 (≈ 49.6 µM) | 31.2 (≈ 99.9 µM) | 31.2 (≈ 99.9 µM) | – | 62.5 (≈ 200 µM) | 125 (≈ 400 µM) | 31.2 (≈ 99.9 µM) | 62.5 (≈ 200 µM) | 31.2 (≈ 99.9 µM) | 125 (≈ 400 µM) | 50 | – | –
3 | CN(C)c1ccc(C(c2c[nH]c3ccccc23)c2c[nH]c3ccccc23)cc1 | > 500 | > 500 | > 500 | > 500 | – | > 500 | > 500 | > 500 | > 500 | > 500 | > 500 | – | – | –
4 | c1cncc(C(c2c[nH]c3ccccc23)c2c[nH]c3ccccc23)c1 | 6.5 (≈ 20.1 µM) | 31.2 (≈ 96.5 µM) | 31.2 (≈ 96.5 µM) | 15.5 (≈ 47.9 µM) | 20 | 31.2 (≈ 96.5 µM) | 32.2 (≈ 99.6 µM) | 15.5 (≈ 47.9 µM) | 15.5 (≈ 47.9 µM) | 15.5 (≈ 47.9 µM) | 15.5 (≈ 47.9 µM) | – | – | –
5 | OC[C@@H](O)[C@H](O)[C@H](O)[C@@H](O)C(c1c[nH]c2ccccc12)c1c[nH]c2ccccc12 | > 500 | > 500 | > 500 | > 500 | – | > 500 | > 500 | > 500 | > 500 | > 500 | > 500 | – | – | –
6 | OC[C@@H](O)[C@@H](O)[C@@H](O)C(c1c[nH]c2ccccc12)c1c[nH]c2ccccc12 | 15.5 (≈ 42.3 µM) | 31.2 (≈ 85.1 µM) | 62.5 (≈ 171 µM) | 31.2 (≈ 85.1 µM) | – | 62.5 (≈ 171 µM) | 62.5 (≈ 171 µM) | 31.2 (≈ 85.1 µM) | 62.5 (≈ 171 µM) | 62.5 (≈ 171 µM) | 125 (≈ 341 µM) | – | 15 | –
7 | OC[C@@H](O)[C@@H](O)[C@H](O)[C@@H](O)C(c1c[nH]c2ccccc12)c1c[nH]c2ccccc12 | > 500 | > 500 | > 500 | > 500 | – | > 500 | > 500 | > 500 | > 500 | > 500 | > 500 | – | – | –
8 | OC[C@@H](O)[C@@H](O)[C@H](O)[C@H](O)C(c1c[nH]c2ccccc12)c1c[nH]c2ccccc12 | > 500 | > 500 | > 500 | > 500 | – | > 500 | > 500 | > 500 | > 500 | > 500 | > 500 | – | – | –
9 | COc1ccc2[nH]cc(Cc3c[nH]c4ccc(OC)cc34)c2c1 | > 500 | > 500 | > 500 | > 500 | – | > 500 | > 500 | > 500 | > 500 | > 500 | > 500 | – | – | –
10 | c1ccc(-c2[nH]c3ccccc3c2Cc2c(-c3ccccc3)[nH]c3ccccc23)cc1 | > 500 | > 500 | > 500 | > 500 | – | > 500 | > 500 | > 500 | > 500 | > 500 | > 500 | – | – | –
11 | Cc1[nH]c2ccccc2c1Cc1c(C)[nH]c2ccccc12 | > 500 | > 500 | > 500 | > 500 | – | > 500 | > 500 | > 500 | > 500 | > 500 | > 500 | – | – | –
12 | c1ccc2c(C(c3c[nH]c4ccccc34)c3c[nH]c4ccccc34)c[nH]c2c1 | 31.2 (≈ 86.3 µM) | 31.2 (≈ 86.3 µM) | 125 (≈ 346 µM) | 250 (≈ 692 µM) | 20 | 125 (≈ 346 µM) | 250 (≈ 692 µM) | 250 (≈ 692 µM) | 500 (≈ 1380 µM) | 125 (≈ 346 µM) | 250 (≈ 692 µM) | – | – | Toxic
13 | c1ccc2c(Cc3c[nH]c4ccccc34)c[nH]c2c1 [ARUNDINE] | 125 (≈ 507 µM) | 125 (≈ 507 µM) | 250 (≈ 1010 µM) | 250 (≈ 1010 µM) | 20 | 250 (≈ 1010 µM) | 250 (≈ 1010 µM) | 125 (≈ 507 µM) | 500 (≈ 2030 µM) | 125 (≈ 507 µM) | 250 (≈ 1010 µM) | – | – | –
14 | CN[C@@H]1[C@H](O[C@H]2[C@H](O[C@H]3[C@H](O)[C@@H](O)[C@H](N=C(N)N)[C@@H](O)[C@@H]3N=C(N)N)O[C@@H](C)[C@]2(O)C=O)O[C@@H](CO)[C@H](O)[C@H]1O [STREPTOMYCIN] | 0.75 (≈ 1.29 µM) | 1.25 (≈ 2.15 µM) | 3.15 (≈ 5.42 µM) | 1.25 (≈ 2.15 µM) | – | 6.25 (≈ 10.7 µM) | 12.5 (≈ 21.5 µM) | 6.25 (≈ 10.7 µM) | 1.5 (≈ 2.58 µM) | 0.75 (≈ 1.29 µM) | 1.5 (≈ 2.58 µM) | – | – | –

Reference: ChEMBL document CHEMBL2434908, “Synthesis and antibacterial evaluation of 3,3-diindolylmethane derivatives” (Med Chem Res, 2013)
